# Test results from US20040254241A1, “Aryl sulfamate derivatives” (priority 2004, published 2004).
# Target: T1, recombinant human estrone sulfatase (Homo sapiens, UniProt P08842)
# T1 construct: made in house; host or cells: Chinese Hamster Ovary (CHO) cells
# T1 sequence (P08842 22-583): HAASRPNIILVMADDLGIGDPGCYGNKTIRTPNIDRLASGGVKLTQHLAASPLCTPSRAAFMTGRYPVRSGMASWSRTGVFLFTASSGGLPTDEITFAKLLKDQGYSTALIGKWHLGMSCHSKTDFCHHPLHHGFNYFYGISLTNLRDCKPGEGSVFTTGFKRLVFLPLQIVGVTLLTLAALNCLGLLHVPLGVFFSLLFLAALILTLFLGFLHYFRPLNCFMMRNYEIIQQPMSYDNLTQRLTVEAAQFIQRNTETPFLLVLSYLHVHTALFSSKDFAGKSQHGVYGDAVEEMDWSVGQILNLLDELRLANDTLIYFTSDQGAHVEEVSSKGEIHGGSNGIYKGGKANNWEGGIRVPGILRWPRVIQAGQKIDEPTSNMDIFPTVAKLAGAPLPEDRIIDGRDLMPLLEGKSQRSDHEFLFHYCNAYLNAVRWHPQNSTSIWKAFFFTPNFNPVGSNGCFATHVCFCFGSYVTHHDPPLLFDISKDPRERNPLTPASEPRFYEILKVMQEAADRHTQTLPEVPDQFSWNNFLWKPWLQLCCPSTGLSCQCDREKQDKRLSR
# Test: Test for inhibition of estrone sulfatase (steroid sulfatase)
# Format: biochemical
# Settings: 4-methylumbelliferyl sulfate 0.3 mmol/L, phosphate buffer pH 7.5, 37° C., 1 hour; enzyme expressed in CHO cells, partially purified; read-out: Inhibitory activity against steroid sulfatase IC50
# Protocol: Test Example 1: Test for Inhibition of Estrone Sulfatase (Steroid Sulfatase)
# 4-Methylumbelliferyl sulfate (final concentration 0.3 mmol/L), recombinant human estrone sulfatase (7.8 ng/well), and each solution of the test compound having each test concentrations (test compound was dissolved in 0.001 mL of DMSO) were added to a phosphate buffer (pH 7.5) (final volume 0.1 mL) containing 0.28 mol/L sucrose and 0.04 mol/L nicotinamide. An enzyme reaction was conducted at 37° C. for 1 hour. The human estrone sulfatase gene was introduced into Chinese Hamster Ovary (CHO) cells, and the recombinant human estrone sulfatase was expressed, then it was used after partial purification. After completing the enzyme reaction, 2 mol/L glycine-sodium hydroxide solution (pH 10.3) (0.13 mL) was added and stirred. Using a fluorescent plate reader (Cyto Fluor II), the fluorescent strength of the generated 4-methylumbelliferone was measured. The measurements were conducted in duplicate at the same time. The fluctuations within the assay were within 10%. An enzyme reaction without the presence of a test compound was conducted at the same time. The inhibitory activity against estrone sulfatase for each concentration of the test compounds was calculated using the following equation.
# A: Amount of 4-methylumbelliferone when test compound is present
# B: Amount of 4-methylumbelliferone when test compound is not present
# Inhibitory activity against estrone sulfatase [formula]
# The inhibitory activity against estrone sulfatase of the aryl sulfamate derivative can be expressed as the concentration (IC50) of aryl sulfamate derivative at which the estrone sulfatase activity in the presence of the aryl sulfamate derivative is half of that when no test compound is added.
row,IC50,SMILES
1,59 nM,CCCCCCCCCNC(=O)/C(I)=C/c1ccc(OS(N)(=O)=O)cc1 [Compound 43]
2,73 nM,CCCCCCCCCNC(=O)/C=C/c1ccc(OS(N)(=O)=O)cc1 [Compound 1]
3,54 nM,CCCCCCCCCNC(=O)/C(Br)=C/c1ccc(OS(N)(=O)=O)cc1 [Compound 42]
4,38 nM,CCCCCCCCCNC(=O)/C(C#N)=C(\C)c1ccc(OS(N)(=O)=O)c(Cl)c1 [Compound 55]
5,41 nM,CCCCCCCCCNC(=O)/C(C#N)=C(\C)c1ccc(OS(N)(=O)=O)c(Br)c1 [Compound 56]
6,61 nM,CCCCCCCCCNC(=O)/C(C)=C/c1ccc(OS(N)(=O)=O)cc1 [Compound 3]

row,SMILES,IC50
1,CCCCCCCCCNC(=O)/C(C#N)=C(\C)c1ccc(OS(N)(=O)=O)cc1 [Compound 13],12 nM
